In US20090030015A1, “NOVEL MULTI-CYCLIC COMPOUNDS” (REVOTAR BIOPHARMACEUTICALS AG, priority 2005, published 2009):

Experiments:
[1] = test system: human E-selectin-IgG chimera; assay: Flow chamber assay, cell adhesion and rolling under flow conditions, E-selectin; assay type: cell-based; conditions: normalized ratio of %-inhibition of compound divided by %-inhibition of bimosiamose; 125 μM compound; HL-60 cells; flow shear 1 dyne/cm^2
Procedure: (§1) Flow Chamber Assay/Cell Adhesion and Rolling Under Flow Conditions
(§2) To assess the capability of compounds to inhibit cell binding under dynamic conditions resembling the flow in a blood vessel, flow chamber assays addressing/testing binding of HL-60 cells/various cell lines to P-selectin, L-selectin and E-selectin chimeric molecules are performed.
(§3) Cell attachment under flow conditions is determined using a parallel flow chamber system. A 35 mm polystyrene culture dish is coated for 1 hour at room temperature with coating buffer (50 mM tris-(hydroxymethyl)aminomethane buffer (Tris), 150 mM NaCl, 2 mM CaCl2; pH 7.4) containing human E- or P-selectin-IgG chimera at concentrations of 2.5 μg/ml or 10 μg/ml, respectively. After removal of the coating solution non specific binding sites are blocked for an additional hour with 1% BSA in coating buffer at room temperature. After washing with assay buffer (“Roswell Park Memorial Institute 1640” (RPMI 1640)+10 mM HEPES) the dish is fitted into a parallel plate laminar flow chamber (sold from Glycotech, Rockville, Md.) and mounted on an inverted phase-contrast microscope (sold from Olympus, Hamburg, Germany) equipped with a CCD camera (JVC) that is connected to a PC. Employing a peristaltic pump (sold from Ismatec, Wertheim-Mondfeld, Germany) the re-circulating system is equilibrated with assay buffer containing 125 μM compound or vehicle control (DMSO). Cells (1 million/ml) are added to the chamber and allowed to distribute for 2 minutes at a high flow rate. The flow rate is then decreased resulting in a calculated flow shear of 1 dyne/cm^2. Video sequences of 10 low power fields are digitally recorded after 5 minutes continuous flow. The percentage of inhibition is calculated from the mean number of cells per field that attached to the coated dish surface in the presence versus absence of compound […].

[2] = test system: human P-selectin-IgG chimera; assay: Flow chamber assay, cell adhesion and rolling under flow conditions, P-selectin; assay type: cell-based; conditions: normalized ratio of %-inhibition of compound divided by %-inhibition of bimosiamose; 125 μM compound; HL-60 cells; flow shear 1 dyne/cm^2
Procedure: as §1, §2, §3

[3] = target: T1, human L-Selectin-IgG-chimera (Homo sapiens, UniProt P14151); assay: Sialyl Lewis X Tyrosine Sulfate Assay (sLex TSA), L-selectin; assay type: binding; conditions: sLexTSA
T1 construct: fused on or other part: human IgG Fc part, captured on the plate by goat anti human Fc antibody; a tag, no second protein
T1 sequence (P14151 39-318 limits assumed): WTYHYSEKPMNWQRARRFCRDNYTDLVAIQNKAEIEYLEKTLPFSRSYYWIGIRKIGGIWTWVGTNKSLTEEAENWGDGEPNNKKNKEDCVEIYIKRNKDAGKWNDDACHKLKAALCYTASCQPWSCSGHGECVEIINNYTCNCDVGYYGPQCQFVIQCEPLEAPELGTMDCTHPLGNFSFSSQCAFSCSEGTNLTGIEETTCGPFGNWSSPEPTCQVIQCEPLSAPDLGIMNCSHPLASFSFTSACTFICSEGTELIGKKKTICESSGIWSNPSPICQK
Procedure: (§4) Sialyl Lewis^X Tyrosine Sulfate Assay (sLe^x TSA):
(§5) Compounds of the present invention are assayed on a molecular level for their ability to inhibit the binding of P-, L-, or E-selectin chimeric molecules to sLe^x and tyrosinesulfate residues linked to a polymeric matrix as a PSGL-1 substitute. Selected IC50-values are determined.
(§6) Microtiter plates are coated overnight in carbonate buffer pH9.6 with goat anti human Fc mAB (10 μg/ml). After washing in assay buffer (25 mM 4-(2-hydroxyethyl)-1-piperazineethanesulfonic acid (HEPES), 150 mM NaCl, 1 mM CaCl2 pH7.4) and blocking (3% bovine serum albumin (BSA) in assay buffer) plates are incubated for 2 h at 37° C. with human P-Selectin-IgG-chimera (0.61 nM respectively 150 ng/mL) or human L-Selectin-IgG-chimera (0.61 nM respectively 89 ng/mL) or human E-Selectin-IgG-chimera (0.61 nM respectively 131 ng/mL). 5 μl of sLe^x-tyrosine sulfate polyacrylamide (1 mg/ml) carrying 15% sLe^x, 10% Tyrosine-sulfate and 5% biotin is complexed with 20 μl Streptavidin-Peroxidase solution (1 mg/ml) and 25 μl assay buffer without CaCl2. For use in the assay, the ligand complex is diluted 1:10000 in assay buffer and further diluted 1:1 with varying amounts of compounds in assay buffer incl. 2% DMSO. This mixture is added to the wells precoated with E- or P-selectin. After incubation for 2 h at 37° C., wells are washed for six times with in assay buffer incl. 0.005% Polyoxyethylenesorbitan monolaurate (TWEEN 20), developed for 10-15 min with 20 μl 3,3′,5,5′-tetramethylbenzidine (TMB)/H2O2 substrate solution and stopped with 20 μl 1M H2SO4. Bound sLe^x-Tyrosine sulfate ligand complex is determined by measuring optical density at 450 nm vs. 620 nm in a Fusion alpha-FP reader (sold from Packard Bioscience, Dreieich, Germany).

[4] = target: T2, human P-Selectin-IgG-chimera (Homo sapiens, UniProt P16109); assay: Sialyl Lewis X Tyrosine Sulfate Assay (sLex TSA), P-selectin; assay type: binding; conditions: sLexTSA
T2 sequence (P16109 42-771 limits assumed): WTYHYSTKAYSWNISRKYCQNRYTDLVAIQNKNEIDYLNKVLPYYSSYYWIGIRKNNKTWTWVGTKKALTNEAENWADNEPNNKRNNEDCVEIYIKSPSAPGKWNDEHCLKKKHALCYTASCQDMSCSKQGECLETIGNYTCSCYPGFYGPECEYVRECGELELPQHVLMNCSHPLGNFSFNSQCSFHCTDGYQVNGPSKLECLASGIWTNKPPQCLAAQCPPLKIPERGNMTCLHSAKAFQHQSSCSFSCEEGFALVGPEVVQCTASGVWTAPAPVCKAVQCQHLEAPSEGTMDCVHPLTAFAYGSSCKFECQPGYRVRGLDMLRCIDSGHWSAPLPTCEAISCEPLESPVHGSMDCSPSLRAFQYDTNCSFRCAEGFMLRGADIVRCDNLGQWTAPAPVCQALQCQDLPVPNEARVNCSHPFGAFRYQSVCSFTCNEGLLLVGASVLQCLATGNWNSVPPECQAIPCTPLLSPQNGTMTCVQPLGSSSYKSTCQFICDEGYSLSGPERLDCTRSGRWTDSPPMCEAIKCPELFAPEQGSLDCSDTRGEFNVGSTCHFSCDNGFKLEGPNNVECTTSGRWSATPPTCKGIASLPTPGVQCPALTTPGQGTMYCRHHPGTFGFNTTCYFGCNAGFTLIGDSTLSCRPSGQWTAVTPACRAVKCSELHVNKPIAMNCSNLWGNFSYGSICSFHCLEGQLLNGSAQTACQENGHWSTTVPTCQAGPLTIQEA
Procedure: as §4, §5, §6

IC50 [3]	IC50 [4]	SMILES	E-Selectin [Ratio] [1]	P-Selectin [Ratio] [2]
		O=C(Nc1ccccc1-c1ccc(C(=O)O)s1)c1cccc(-c2cc(O)cc(O)c2)c1 [Compound 85, 5-{2-[(3′,5′-Dihydroxy-biphenyl-3-carbonyl)-amino]-phenyl}-thiophene-2-carboxylic acid]	1.20 Ratio	1.90 Ratio
		Cc1oc(-c2ccc(NC(=O)Cc3cc(O)cc(O)c3)cc2)cc1C(=O)O [Compound 31, 5-{4-[2-(3,5-Dihydroxy-phenyl)-acetylamino]-phenyl}-2-methyl-furan-3-carboxylic acid]	1.16 Ratio	0.60 Ratio
		Cc1oc(-c2ccc(NC(=O)c3cccc(-c4ccc(O)cc4O)c3)nc2)cc1C(=O)O [Compound 93, 5-{6-[(2′,4′-Dihydroxy-biphenyl-3-carbonyl)-amino]-pyridin-3-yl}-2-methyl-furan-3-carboxylic acid]	0.86 Ratio	1.13 Ratio
> 500 µM		O=C(O)Cc1cccc(-c2cc(CCCCCCc3ccc(O[C@H]4O[C@H](CO)[C@@H](O)[C@H](O)[C@@H]4O)c(-c4cccc(CC(=O)O)c4)c3)ccc2O[C@H]2O[C@H](CO)[C@@H](O)[C@H](O)[C@@H]2O)c1 [Bimosiamose, bimosiamose, reference compound]		
	354 µM	O=C(O)Cc1ccc(-c2ccccc2NC(=O)Cc2cccc(-c3ccc(O)cc3O)c2)s1 [Compound 70, (5-{2-[2-(2′,4′-Dihydroxy-biphenyl-3-yl)-acetylamino]-phenyl}-thiophen-2-yl)-acetic acid]	0.83 Ratio	0.82 Ratio
62.3 µM	50 µM	COC(=O)Cc1ccc(-c2ccccc2NC(=O)c2cccc(-c3ccc(O)cc3O)c2)s1 [Compound 64, (5-{2-[(2′,4′-Dihydroxy-biphenyl-3-carbonyl)-amino]-phenyl}-thiophen-2-yl)acetic acid methyl ester]	1.34 Ratio	1.70 Ratio
		COc1ccc(-c2cccc(C(=O)Nc3cccc(-c4ccc(CC(=O)O)s4)c3)c2)c(OC)c1 [Compound 89, (5-{3-[(2′,4′-Dimethoxy-biphenyl-3-carbonyl)-amino]-phenyl}-thiophen-2-yl)-acetic acid]	1.27 Ratio	1.41 Ratio
		O=C(O)Cc1ccc(-c2ccccc2NC(=O)c2cccc(-c3cc(O)cc(O)c3)c2)s1 [Compound 82, (5-{2-[(3′,5′-Dihydroxy-biphenyl-3-carbonyl)-amino]-phenyl}-thiophen-2-yl)-acetic acid]	1.35 Ratio	2.11 Ratio
		O=C(O)c1cccc(NC(=O)c2cccc(-c3ccc(O)cc3O)c2)c1 [Compound 79, 3-[(2′,4′-Dihydroxy-biphenyl-3-carbonyl)-amino]-benzoic acid]	0.96 Ratio	1.19 Ratio
38.7 µM	19.1 µM	O=C(O)Cc1ccc(-c2cccc(NC(=O)c3cccc(-c4ccc(O)cc4O)c3)c2)s1 [Compound 90, (5-{3-[(2′,4′-Dihydroxy-biphenyl-3-carbonyl)-amino]-phenyl}-thiophen-2-yl)-acetic acid]		
151 µM	62.9 µM	COc1ccc(-c2cccc(C(=O)Nc3ccccc3-c3ccc(CC(=O)O)s3)c2)c(OC)c1 [Compound 62, (5-{2-[(2′,4′-Dimethoxy-biphenyl-3-carbonyl)-amino]-phenyl}-thiophen-2-yl)acetic acid]	1.15 Ratio	1.22 Ratio
		COC(=O)Cc1ccc(-c2ccccc2NC(=O)c2cncc(-c3ccc(O)cc3O)c2)s1 [Compound 74, [5-(2-{[5-(2,4-Dihydroxy-phenyl)-pyridine-3-carbonyl]-amino}-phenyl)-thiophen-2-yl]-acetic acid methyl ester]	0.68 Ratio	1.02 Ratio
		O=C(Nc1cccc(C(F)(F)F)c1)c1cccc(-c2ccc(O)cc2O)c1 [Compound 98, 2′,4′-Dihydroxy-biphenyl-3-carboxylic acid (3-trifluoromethyl-phenyl)-amide]	1.26 Ratio	1.00 Ratio
		Cc1oc(-c2ccc(NC(=O)Cc3ccc(O)cc3O)cc2)cc1C(=O)O [Compound 29, 5-{4-[2-(2,4-Dihydroxy-phenyl)-acetylamino]-phenyl}-2-methyl-furan-3-carboxylic acid]	1.31 Ratio	0.74 Ratio
144 µM	46.6 µM	COc1cc(OC)cc(-c2cccc(C(=O)Nc3ccccc3-c3ccc(C(=O)O)s3)c2)c1 [Compound 84, 5-{2-[(3′,5′-Dimethoxy-biphenyl-3-carbonyl)-amino]-phenyl}-thiophene-2-carboxylic acid]	1.36 Ratio	1.02 Ratio
152 µM	67.8 µM	COc1ccc(-c2cccc(C(=O)Nc3ccccc3-c3ccc(C(=O)O)s3)c2)c(OC)c1 [Compound 66]	1.21 Ratio	0.76 Ratio
		Cc1oc(-c2ccc(NC(=O)c3cccc(-c4ccc(O)cc4O)c3)cc2)cc1C(=O)O [Compound 96, 5-{4-[(2′,4′-Dihydroxy-biphenyl-3-carbonyl)-amino]-phenyl}-2-methyl-furan-3-carboxylic acid]	1.13 Ratio	1.02 Ratio
		O=C(Nc1ccccc1-c1cccs1)c1cccc(-c2ccc(O)cc2O)c1 [Compound 87, 2′,4′-Dihydroxy-biphenyl-3-carboxylic acid (2-thiophen-2-yl-phenyl)-amide]	1.24 Ratio	1.05 Ratio
